Laboratory results: the supplement of paper PMC10307832

How the values were obtained:
Assay in all cases: relative viability (nuclei count vs DMSO), 5 days (fraction); higher = more cells survive
[1] = compound: Cc1ccc(Nc2nccc(N(C)c3ccc4c(C)n(C)nc4c3)n2)cc1S(N)(=O)=O [Pazopanib] + Nc1nc2[nH]cc(CCc3ccc(C(=O)N[C@@H](CCC(=O)O)C(=O)O)cc3)c2c(=O)[nH]1 [Pemetrexed] (partner 0.2 µM)
Procedure, shortened: (§1)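 Nuclei were stained with Hoechst during a one-step fixation (final 0.05% Triton X-100, 1% formaldehyde, 1 ug/ml Hoechst) carried out 5 days after dosing, then counted on 4× images. The cells, lung cancer lines in 1536-well plates, had been dosed by pin tool the day after seeding with one drug alone or a fixed anchor-drug dose plus five library-drug doses (not always all listed) in √10 steps. Relative viability is the nuclei count in treated wells divided by that in vehicle wells, and each value is the median of duplicate plates.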

[2] = compound: Cc1ccc(Nc2nccc(N(C)c3ccc4c(C)n(C)nc4c3)n2)cc1S(N)(=O)=O [Pazopanib] + COc1cc2c(Oc3ccc(NC(=O)C4(C(=O)Nc5ccc(F)cc5)CC4)cc3F)ccnc2cc1OCCCN1CCOCC1 [Foretinib] (partner 0.25 µM)
Procedure, shortened: as §1

[3] = compound: Cc1ccc(Nc2nccc(N(C)c3ccc4c(C)n(C)nc4c3)n2)cc1S(N)(=O)=O [Pazopanib] + Cc1cc(Nc2cc(N3CCN(C)CC3)nc(Sc3ccc(NC(=O)C4CC4)cc3)n2)n[nH]1 [Tozasertib] (partner 0.1 µM)
Procedure, shortened: as §1

[4] = compound: Cc1ccc(C(=O)Nc2ccc(CN3CCN(C)CC3)c(C(F)(F)F)c2)cc1C#Cc1cnc2cccnn12 [Ponatinib] + Nc1nc2[nH]cc(CCc3ccc(C(=O)N[C@@H](CCC(=O)O)C(=O)O)cc3)c2c(=O)[nH]1 [Pemetrexed] (partner 0.2 µM)
Procedure, shortened: as §1

Cell Line	relative viability ([1]; first compound 0.01 µM)	relative viability ([1]; first compound 0.03162 µM)	relative viability ([1]; first compound 0.1 µM)	relative viability ([1]; first compound 0.3162 µM)	relative viability ([1]; first compound 1 µM)	relative viability ([2]; first compound 0.01 µM)	relative viability ([2]; first compound 0.03162 µM)	relative viability ([2]; first compound 0.1 µM)	relative viability ([2]; first compound 0.3162 µM)	relative viability ([2]; first compound 1 µM)	relative viability ([3]; first compound 0.01 µM)	relative viability ([3]; first compound 0.03162 µM)	relative viability ([3]; first compound 0.1 µM)	relative viability ([3]; first compound 0.3162 µM)	relative viability ([3]; first compound 1 µM)	relative viability ([4]; first compound 0.002 µM)	relative viability ([4]; first compound 0.006325 µM)	relative viability ([4]; first compound 0.06325 µM)	relative viability ([4]; first compound 0.2 µM)
NCI-H1650	0.34	0.376	0.364	0.403	0.369	1.12	1.2	1.15	1.05	1.09	0.47	0.382	0.443	0.539	0.312	0.345	0.334	0.44	0.36
BEN	0.67	0.803	0.706	0.8	0.834		0.656	0.517	0.804	0.696	0.481	0.463	0.582	0.516	0.482	0.678	0.718	0.749	0.767
EMC-BAC-2		0.456	0.384	0.434	0.425		0.991	1.01	1.02	1.06		0.302	0.302	0.226	0.278	0.436	0.404	0.468	0.395
LU99A		0.19	0.182	0.185	0.136	0.772	0.906	0.878	0.864	0.837	0.272	0.3	0.277	0.262	0.233	0.17	0.173	0.186	0.315
ABC-1						0.843	1.06		0.975	1.04	0.182	0.174		0.151	0.19				
NCI-H358	0.179	0.167	0.168	0.165	0.161	0.726	0.91	0.838		0.918	0.109	0.0888	0.104		0.0878	0.168	0.162	0.189	0.174
NCI-H1299						1.07	1.06	1.13	1.09	1.01									
EBC-1						0.095	0.104	0.0934	0.103	0.0962									
NCI-H2405	0.97	1.11	1.17	1.14	1.41	0.997	1.13	1.11	1.11	1.08	0.77	0.777	0.79	0.75	0.76	0.913	1.06	1.1	1.01
NCI-H1993		0.588	0.639	0.549	0.554		0.69	0.783	0.728	0.817		0.54	0.656	0.589	0.579	0.691	0.62	0.573	0.678
NCI-H441	0.236	0.274	0.272	0.224	0.253	0.974	1.14	0.859	1	0.857	0.798	0.683	0.784	0.558	0.518	0.266	0.256	0.297	0.215
PC-14	0.133	0.137	0.124	0.133	0.126	0.962	0.972	1.11	1.03	1	0.69	0.636	0.725	0.586	0.603	0.129	0.137	0.141	0.122
HARA	0.245	0.244	0.242	0.207	0.237	0.902	0.977	1	0.884	0.95	0.09	0.119	0.603	0.0772	0.0838	0.262	0.23	0.246	0.282
NCI-H2087	0.61	0.65	0.637	0.59	0.657	1.27	0.966	1.03	1.13	0.796	0.298	0.27	0.279	0.281	0.256	0.673	0.648	0.657	0.579
NCI-H1437	0.327	0.333	0.328	0.296	0.321	1.33	1.25	1.16	1.21	1.31	0.414	0.42	0.408	0.412	0.375	0.312	0.294	0.32	0.27
NCI-H1648			0.662	0.77	0.742						0.387	0.57	0.398	0.459	0.476	0.574	0.667	0.63	0.618
NCI-H1792		0.943	0.742	0.781	0.79											0.698	0.849	1.14	0.746
HCC-44	0.697	0.637	0.605	0.62	0.616						0.872	0.913	0.926	0.843	0.78	0.636	0.653	0.688	0.622
A549						0.905	1.03	1.16	0.985	0.913									
NCI-H1563	0.707	0.805	0.691	0.876	0.81	0.823	0.966	1.04	0.969	1.08						0.748	0.798	0.745	0.641
NCI-H522	0.842	0.83	0.956	1.09	1.02						0.568	0.454	0.493	0.646	0.58	0.753	1.15	1.15	1.13
IA-LM						1.17	1.07	1.13	1.04	1.02									
NCI-H1703						0.306	0.358	0.362	0.396	0.337									
